Assay [1] has as its system BRAF^V600E. Also noted: method as in PMID 18942827. Conditions: cited from earlier work.
In assay [2] the test system is BRAF^V600E. Details: method as in PMID 37716963. Conditions: cited from earlier work.
For another assay, the system named is caspase-3. Description: Caspase-3 activation assay. Conditions: PC-3 cell line. The assay is classed as cell-based, human. The source says:
Caspase-3 is a key caspase that cleaves numerous cell proteins, resulting in apoptosis. […] They elevated the protein caspase-3 in the PC-3 cancer cell line by around seven to nine times compared to untreated control cells.
(§1) For more details, see Supplementary Materials. […]
4.2.3. Caspase-3 activation assay
Allow all reagents to reach room temperature before use. Gently mix all liquid reagents prior to use. Determine the number of 8-well strips needed for the assay. Insert these in the frame(s) for current use. Add 100 μl of the Standard Diluent Buffer to the zero standard wells. Well(s) reserved for chromogen blank should be left empty. Add 100 μl of standards and controls or diluted samples to the appropriate microtiter wells. The sample dilution chosen should be optimized for each experimental system. Tap gently on side of plate to mix. Cover wells with plate cover and incubate for 2 hours at room temperature. Thoroughly aspirate or decant solution from wells and discard the liquid, Wash wells 4 times. Pipette 100 μl of Caspase-3 (Active) Detection Antibod y solution into each well except the chromogen blank(s). Tap gently on the side of the plate to mix.
Cover plate with plate cover and incubate for 1 hour at room temperature. Thoroughly aspirate or decant solution from wells and discard the liquid, Wash well s 4 times. Add 100 μl Anti-Rabbit IgG HRP Working Solution to each well except the chromogen blank(s). Prepare the working dilution as described in Preparing IgG HRP. Cover wells with the plate cover and incubate for 30 minutes at room temperature. Thoroughly aspirate or decant solution from wells and discard the liquid. Wash wells 4 times. Add 100 μl of Stabilized Chromogen to each well. The liquid in the wells will begin to turn blue. Incubate for 30 minutes at room temperature and in the dark. The incuba tion time for chromogen substrate is often determined by the microtiter plate reader used. Many plate readers have the capacity to record a maximum optical density (O.D.) of 2.0. The O.D. values should be monitored, and the substrate reaction stopped befor e the O.D. of […]
the positive wells exceeds the limits of the instrument. The O.D. values at 450 nm can only be read after the Stop Solution has been added to each well. If using a reader that […]
100 μl of Stop Solution to each well. Tap side of plate gently to mix. The solution in the wells should change from blue to yellow. Read the absorbance of each well at 450 nm having blanked the plate reader against a chromogen blank composed of 100 μl each of Stabilized Chromogen and Stop Solution. Read the plate within 2 hours after adding the Stop Solution. Use a curve fitting software to generate the standard curve. A four-parameter algorithm provides the best standard curve fit. Read the concentrations for unknown samples and controls from the standard curve. Multiply value(s) obtained for sample(s) by the appropriate dilution factor to correct for the dilution in step 3. Samples producing signals greater than that of the highest standard should be diluted in Standard Diluent Buffer and reanalyzed. […]
A standard curve is […]
prepared from 7human Caspase-8 standard dilutions and human Caspase-8 concentration determined.

A further assay relates to Bax. Nature of the assay: Bax activation assay. It counts as cell-based, human. Conditions: PC-3 cell line. As for the experimental part:
For more details, see Supplementary Materials.
4.2.5. Bax activation assay
Bring all reagents, except the human Bax-α Standard, to room temperature for at least 30 minutes prior to opening. The human Bax -α Standard solution should not be left at room temperature for more than 10 minutes. All standards, controls and samples should be run in duplicate. Refer to the Assay Layout Sheet to determine the number of wells to be used and put any remaining wells with the desiccant back into the pouch and seal the ziploc. Store unused wells at 4 °C. Pipet 100 μL of Assay Buffer into the S0 ( 0 pg/mL standard) wells. Pipet 100 μL of Standards #1 through #6 into the appropriate wells. Pipet 100 μL of the Samples into the appropriate wells. Tap the plate gently to mix the contents. Seal the plate and incubate at room temperature on a plate shaker for 1 hour at ~500 rpm. Empty the contents of the wells and wash by adding 400 μL of wash solution to every well. Repeat the wash 4 more times for a total of 5 washes. After the final wash, empty or aspirate the wells and firmly tap the plate on a lint fr ee paper towel to remove any remaining wash buffer. Pipet 100 μL of yellow Antibody into each well, except the Blank. Seal the plate and incubate at room temperature on a plate shaker for 1 hour at ~500 rpm. Empty the contents of the wells and wash by addi ng 400 μL of […]
the final wash, empty or aspirate the wells and firmly tap the plate on a lint free paper towel to remove any remaining wash buffer. Add 100 μL of blue Co njugate to each well, except the Blank. Seal the plate and incubate at room temperature on a plate shaker for 30 minutes at ~500 rpm. Empty the contents of the wells and wash by adding 400 μL of wash solution to every well. Repeat the wash 4 more times for a total of 5 washes .
After the final wash, empty or aspirate the wells and firmly tap the plate on a lint free paper towel to remove any remaining wash buffer. Pipet 100 μL of Substrate Solution into each well. Incubate for 30 minutes at room temperature on a plate shaker at ~500 rpm. Pipet 100 μL Stop Solution to each well. Blank the plate reader against the Blank wells, read the optical density at 450 nm. Calculate the average net Optical Density (OD) bound for each standard and sample by subtracting the average Blank OD from the average OD for each standard and sample. Using linear graph paper, plot the Average Net OD for each standard versus Bax concentration in each standard.
Approximate a straight line through the points. The concentration of Bax in the unknowns can be determined by interpolation. […]

The subject of the next assay is Bcl-2. Nature of the assay: Bcl-2 inhibition assay. The assay is classed as cell-based, human. Conditions: PC-3 cell line. As to the method:
as §1
4.2.6. Bcl-2 inhibition assay
Mix all reagents thoroughly without foaming before use. Wash the microwells twice with approximately 300 μL Wash Buffer per well with thorough aspiration of microwell contents between washes. Take caution not to scratch the surface of the microwells.
After the last wash, empty the wells and tap microwell strips on absorbent pad or paper towel to remove excess Wash Buffer. Use the microwell strips immediately after washing or place upside down on a wet absorbent paper for not longer than 15 minutes.
Add 100 μL of Sample Diluent in duplicate to all standard wells and to the blank wells. Prepare standard (1:2 dilution) in duplicate ranging from 32 ng/mL to 0.5 ng/mL. Add 100 μL of Sample Diluent, in duplicate, to the blank wells.
Add 80 μL of Sample Diluent, in duplicate, to the sample wells. Add 20 μL of each Sample, in duplicate, to the designated wells. Add 50 μL of diluted biotin-conjugate to all wells, including the blank wells. Cover with a plate cover and incubate at room temperature, on a microplate shaker at 100 rpm if available, for 2 hours. Remove plate cover and empty the wells. Wash microwell strips 3 times as described in step 2. Add 100 μL of diluted Streptavidin-HRP to all wells, including the blank wells. Cover with a plate cover and incubate at room temperature, on a microplate shaker at 100 rpm if available, for 1 hour. Remove plate cover and empty the wells. Wash microwell strips […]
3 times as described in step 2. Proceed to the next step. Pipette 100 μl of mixed TMB Substrate Solution to all wells, including the blanks. Incubate the microwell strips at room temperature (18° to 25°C) for about 15 minutes, if available on a rotator set at 100 rpm. Avoid direct exposure to intense light. The point, at which the substrate reaction is stopped, is often determined by the ELISA reader. Many ELISA readers record absorbance only up to 2.0 O.D. Therefore, the color development within individual microwells must be watched by the person running the assay and the substrate reaction stopped before positive wells are no longer properly detectable. Stop the enzyme reaction by quickly pipetting 100 μL of Stop Solution into each well, including the blank wells. It is important that the Stop Solution is spread quickly and uniformly throughout the microwells to completely inactivate the enzyme. Results must be read immediately after the Stop Solution is added or within one hour if the microwell strips are stored at 2 - 8°C in the dark. Read absorbance of each microwell on a spectrophotometer using 450 nm as the primary wavelength.
4.3. Statistical analysis
Computerized Prism 5 program was used to statistically analyzed data using one-way ANOVA test followed by Tukey’s as post ANOVA for multiple comparison at P ≤.05.
Data were presented as mean ± SEM.

A further assay has as its system four cancer cell lines. Details: method as in PMID 37716963. Conditions: against four cancer cell lines; cited from earlier work.
[3] abbreviates: Figure 1, read-out: IC50 BRAF inhibitor.
Where [4] appears, read: text b8, read-out: IC50 anti-BRAF^V600E.

SMILES strings stand for the structures. Where two headings read alike, the source gives them in different places.

Data on five molecules can be found in publication PMC10819888, “Benzimidazole-Based Derivatives as Apoptotic Antiproliferative Agents: Design, Synthesis, Docking, and Mechanistic Studies” (Molecules, 2024).

As for `COC(=O)c1ccc2[nH]c(-c3ccc(Cl)cc3)nc2c1` [Compound 2], the results for the 50% inhibitory concentration (IC50) with BRAF^V600E [1] (setting [3]) and in the assay on BRAF^V600E [1] (setting [4]) were 2 nM and 2000 nM, respectively.
As to `NNC(=O)c1ccc2[nH]c(-c3ccc(Cl)cc3)nc2c1` [Compound 3], the IC50 with BRAF^V600E [1] (setting [3]) was 14 nM; in the assay on BRAF^V600E [1] (setting [4]), 14000 nM.
Take `C#Cc1cccc(Nc2ncnc3cc(OCCOC)c(OCCOC)cc23)c1` [erlotinib]: the IC50 with BRAF^V600E [2] was […].
On to `CN[C@@H]1C[C@H]2O[C@@](C)([C@@H]1OC)n1c3ccccc3c3c4c(c5c6ccccc6n2c5c31)C(=O)NC4` [staurosporine, reference compound], for which, in the assay on caspase-3, the “Caspase-3 Conc” value turned out to be 260 ± 5 pg/mL and the caspase-3 protein level is recorded as 260 ± 5 pg/mL. In addition, in the assay on Bax, the “Bax Conc” value worked out at 170 pg/mL, the “Bax increase compared to untreated PC-3 cancer cells” value is reported as 24 fold and the Bax level was 170 pg/mL. Also, the “Bcl-2 Conc” value in the assay on Bcl-2 is listed as 1.00 ng/mL.
Regarding `COc1ccc(-c2nc3cc(-c4nnc(SCC(=O)Nc5ccc(C(=O)/C=C/c6ccccc6)cc5)o4)ccc3[nH]2)cc1` [Compound 4], in the assay with four cancer cell lines, the GI50 was 1200 nM. In the assay on BRAF^V600E [2], the half-maximal inhibitory concentration (IC50) is 1700 ± 200 nM.
